4 compounds from patent publication US9102620B2, “Deuterated N-ethyl-N-phenyl-1,2-dihydro-4-hydroxy-5-chloro-1-methyl-2-oxoquinoline-3-carboxamide, salts and uses thereof” (TEVA PHARMACEUTICAL INDUSTRIES, LTD., priority 2010, dated 2015) can be followed below.

Several values for one entry are separate records, joined by “and”; a condition that tells them apart may be missing. Identical values can stand only once. Like-named read-outs stand apart in the source and are kept apart here.

A word on the AUC(0-inf): it is the area under the concentration-time curve extrapolated to infinity. A high value points to more exposure. One may read the AUC(0-t) as the area under the concentration-time curve up to a stated or last time point. The low end stands for low exposure, the high end for high exposure. Broadly, the half-life is the time needed for the level to fall by half in the phase considered. Lower therefore signals rapid decline. One may read the Cmax as the highest concentration seen after dosing. What is called Tmax is the time from dosing to the highest level.

Data set [1] can be described thus: Pharmacokinetic profile in rat plasma following oral administration. Type of data set: in vivo. How it is done: The main objectives of this example were: • Quantification of Compound 1, Compound 2, Compound 3 and Laquinimod in rat plasma using LC/MS/MS bioanalytical method. • Characterization of the pharmacokinetic profile of Compound 1, Compound 2, Compound 3 and Laquinimod following oral (PO) administration at a dose of 0.2 mg/kg. • The measurement DELAQ concentrations in the collected plasma samples. Rats cannulated at the right common jugular vein by polyethylene tubing were used. In the in-life part, three cannulated female rats were treated with each of the four test articles at dose of 0.2 mg/kg. Blood was withdrawn from the rats at five different time points for the preparation of plasma. The concentrations of Compound 1, Compound 2, Compound 3, laquinimod, and DELAQ were determined in these plasma samples, using applicable LC/MS/MS methods. Oral administration was performed by oral gavage at a dosage volume of 5 ml/kg using a blunt feeding stainless steel needle (Popper & Sons, USA). Body weights were measured before dose administration and doses were calculated on the basis of individual body weight. Blood were withdrawn from animals at the following time points: 1, 2, 4, 8 and 24 hours after dosing as detailed in the table below. The actual sampling time were recorded. Each animal was restrained firmly. After the removal of the seal the port of the cannula was accessed with an appropriate blunted needle mounted on a syringe containing PBS. After having withdrawn approximately 100 μL of blood, the syringe was changed to a clean heparinized syringe. Approximately 250 μL of blood was collected for the preparation of plasma. The first 100 μL fraction of blood was returned and 250 μL of PBS was given to the animal through the catheter. The catheter was filled by heparinized glycerol (100 IU/ml) solution prepared by mixing 10 ml stock heparin (200 IU/ml) with 10 ml of sterile glycerol (d=1.26 g/mL). Blood specimens were mixed immediately and were placed on water ice. Whole blood was centrifuged at 2500 g for 10 min at 4° C., and the separated plasma was transferred into pre-labeled polypropylene tubes and the tubes were frozen at −70° C. within 70 minutes of collection. The concentrations of test items (Compound 1, Compound 2, Compound 3 and Laquinimod) and the concentration of DELAQ were determined in the plasma samples by using reliable LC/MS/MS assay. Pharmacokinetic parameters were calculated and the mean plasma levels versus time curves were evaluated. The following pharmacokinetic parameters were determined from the mean plasma concentration-time data (mean of three animals at each time point) of Compound 1, Compound 2, Compound 3 and Laquinimod.

Data set [2] deals with MOG induced EAE. Kind of data set: MOG induced EAE in C57BL/6 mice. Type of data set: in vivo. The settings on record: 10 mg/kg orally, daily; for Mortality: Day 0 to Day 30; for % inhibition 1 (according to incidence) / % inhibition 2 (according to MMS) / % inhibition 3 (according to GMS): compared to vehicle; for Incidence: sick mice/group.
Data set [3] deals with CYP1A2. The note with it: human, 3 days; for Enzyme activity, Phenacetin O-dealkylation (CYP1A2) / Percent positive control, Phenacetin O-dealkylation (CYP1A2) activity: hepatocytes. How it is done:
(§1) After treatment, the cells were incubated in situ with marker substrates for the analysis of phenacetin O-dealkylation (marker for CYP1A2) and midazolam 1′-hydroxylation (marker for CYP3A4/5) by LC/MS/MS.
Incubations of hepatocytes with probe substrates were conducted in accordance with SOP L5041.02. Approximately 24 hours after the last treatment, spent media was aspirated from the wells, and each well was rinsed two times with pre-warmed (37±2° C.) fresh culture media. Media was aspirated from the wells and reactions were started by addition of 200 μL pre-warmed media containing the probe substrate to each well. […] At 30 minutes, an aliquot (150 μL) of the incubation mixture was removed and added to a well of a 96-well plate containing 300 μL of stop reagent (acetonitrile) and internal standard (Table 2). The mixtures were mixed thoroughly and allowed to sit for at least 15 minutes at 2-8° C. Samples were centrifuged at 2000×g for 10 minutes at 2-8° C., and supernatant fractions were analyzed by LC/MS/MS.
All analyses were performed with validated LC/MS/MS methods. The procedures used for the analysis of each metabolite followed the applicable LC/MS/MS analytical method SOPs and are summarized in Table 2. The MS equipment was either an ABI Sciex (Applied Biosystems/MDS SCIEX) API 4000 or API 3000 instrument with Shimadzu HPLC pumps and autosampler systems.
Individual rates of reaction from like treatment groups were averaged, and for those groups with n≧3, standard deviations were determined. Fold increases were determined by dividing the enzymatic rate for each treatment group by that of the vehicle control. Percent positive control was calculated with the following equation: […]

Data set [4] relates to CYP1A2 mRNA. The settings on record: human, 3 days. The method, then: as §1
Approximately 24 hours after the last treatment, hepatocytes were lysed in TRIzol reagent after the in situ marker substrate incubations, and cell lysates were stored at −75±5° C. For human hepatocyte preparation H971, media from six wells per treatment group was aspirated, and approximately 132 μL TRIzol were added to each well. The cell lysates were mixed by repeated pipetting. Total RNA was isolated from the cell lysates using the TRIzol protocol (Invitrogen) and was purified using the RNeasy Mini Kit (Qiagen Inc.) according to SOP L6161.02. RNA quality and concentration were determined by measuring absorbance at 260 and 280 nm on a BioTek Synergy HT plate reader (BioTek Instruments, Inc.) with KC4 Signature software (version 3.4 Rev 21, BioTek Instruments, Inc.) according to SOP L6162.02. The analysis of RNA integrity was carried out with the RNA 6000 Nano Assay Kit on an Agilent 2100 Bioanalyzer (Agilent Technologies, Inc.) according to SOP L6162.02. Single-stranded cDNA was prepared from RNA with the RT Master Mix using the AB 7300 Real Time PCR system thermocycling program or AB 7900HT Fast Real Time PCR System thermocycling program (Applied Biosystems) according to SOP L6160.04. […] The RT Master Mix was added to each RNA sample to complete the components of the reaction. No template controls (NTCs) were included in the analysis. For the NTC reactions, RNase-free water was added in place of the RNA sample. The cDNA prepared samples were stored at −20±5° C. prior to analysis by qRT-PCR.
Quantitative RT-PCR was carried out according to SOP L6160.04 (XenoTech, LLC) and the Applied Biosystems protocol. Each PCR was performed in triplicate. A Primer Mix was prepared for each Gene Expression assay. A typical Primer Mix contained TaqMan Universal Master Mix (1×), Gene Expression Assay (1×, 900 nM forward and reverse primers) and RNase-free water. The Reaction Mix was prepared by adding the Primer Mix to cDNA. A percentage of samples (no less than 10%) included NACs. […] The relative quantity of the target cDNA compared with that of the control cDNA (GAPDH) was determined by the ΔΔCt method (Applied Biosystems User Bulletin #2). Relative quantification measures the change in mRNA expression in a test sample relative to that in a control sample (e.g., DMSO). This method assumes that the efficiency of the target amplification and the efficiency of the endogenous control amplification are approximately equal.
For qRT-PCR, data were processed using the Sequence Detection System (SDS) Software version 1.4, for Relative Quantification (Applied Biosystems). This software analyzes relative gene expression using the comparative Ct method (ΔΔCt), which relates the PCR signal of the target transcript to the PCR signal of the target in an untreated control. Both the treated sample and the untreated control signals are normalized to the endogenous control (GAPDH), for which expression is not affected by treatment and expression is constant throughout the tissue being tested. […] Calculations are as follows: ΔCt=Ct(target)−Ct(endogenous control) 1. ΔΔCt=ΔCt(treated sample)−ΔCt(untreated control) 2. Fold change in expression=2−ΔΔCt 3.
The level of mRNA expression relative to the positive control was calculated as follows: […]

The mark [5] stands for this setting: female, rat, po, 0.2 mg/kg, Average of rats.
Where [6] appears, read: female, rat, po, 0.2 mg/kg, Average of rats, read-out: Cmax.
Setting [7] is: female, rat, po, 0.2 mg/kg, Average of rats, read-out: Tmax.
The mark [8] stands for this setting: female, rat, po, 0.2 mg/kg, individual rats.
The mark [9] stands for this setting: female, rat, po, 0.2 mg/kg, individual rats, read-out: Cmax.
Setting [10] is: female, rat, po, 0.2 mg/kg, individual rats, read-out: Tmax.
Where [11] appears, read: individual rats, oral 0.2 mg/kg.

Consider `[2H]c1c([2H])c([2H])c(N(CC)C(=O)c2c(O)c3c(Cl)cccc3n(C)c2=O)c([2H])c1[2H]` [Compound 1, N-ethyl-N-D5-phenyl-1,2-dihydro-4-hydroxy-5-chloro-1-methyl-2-oxoquinoline-3-carboxamide], for which, in data set [1] (setting [5]), the AUC(0-inf) stood at 13800 ng·h/mL, the AUC(0-t) was 10400 ng·h/mL and the half-life is 11.3 h. Moreover, in data set [1] (setting [6]), the Cmax was found to be 774 ng/mL. Also, the Tmax in data set [1] (setting [7]) came out at 1.8 h. In data set [1] (setting [8]), this compound gave an AUC(0-inf) of 19300 ng·h/mL, an AUC(0-t) of 13700 ng·h/mL and a half-life of 13.4 h. The Cmax in data set [1] (setting [9]) worked out at 945 ng/mL. Moreover, the Tmax in data set [1] (setting [10]) stood at 1 h. For the same compound, in data set [1] (setting [11]), the AUCinf was 13617.9 ng·h/mL and 9733.8 ng·h/mL and 12447.9 ng·h/mL; the AUClast was 10011.7 ng·h/mL and 8039.3 ng·h/mL and 10061.6 ng·h/mL; the Cmax was 730.7 ng/mL and 611.9 ng/mL and 809.5 ng/mL; the T1/2 is 12.1 h and 9.5 h and 10.0 h. The Tmax in data set [1] (setting [11]) is 2.0 h. In addition, in data set [2], the “GMS value (group mean score)” value came out at 0.74 ± 0.86, the “MMS value (mean maximal score)” value was 1.5 ± 1.7, the “Mean Duration” value was determined as 7.9 ± 8.2 days and the “Mean Onset” value is 22.1 ± 8.9 days. For the same compound, in data set [2], the “activity in inhibition of EAE clinical signs compared to laquinimod” value was “no significant difference in activity”, the Mortality is reported as 0/15, the “% inhibition 1 (according to incidence)” value is on record as 42.9% and the “% inhibition 2 (according to MMS)” value is reported as 53.1%. In data set [2], the “% inhibition 3 (according to GMS)” value was found to be 66.5% and the Incidence is 8/15.

In data set [1] (setting [5]), `[2H]c1c([2H])c([2H])c(N(C(=O)c2c(O)c3c(Cl)cccc3n(C)c2=O)C([2H])([2H])C([2H])([2H])[2H])c([2H])c1[2H]` [Compound 3, N-D5-ethyl-N-D5-phenyl-1,2-dihydro-4-hydroxy-5-chloro-1-methyl-2-oxoquinoline-3-carboxamide] showed an AUC(0-inf) of 15800 ng·h/mL, an AUC(0-t) of 10500 ng·h/mL and a half-life of 12.4 h. Moreover, the Cmax in data set [1] (setting [6]) was 835 ng/mL. In data set [1] (setting [7]), the Tmax was 1.4 h. Moreover, in data set [1] (setting [8]), the AUC(0-inf) was determined as 15800 ng·h/mL and the half-life is 11.5 h. Further, the peak concentration (Cmax) in data set [1] (setting [9]) was determined as 908 ng/mL. For the same compound, the Tmax in data set [1] (setting [10]) was determined as 1 h. In data set [1] (setting [11]), the AUCinf was 18246.2 ng·h/mL and 15225.2 ng·h/mL and 14845.1 ng·h/mL and 14643.7 ng·h/mL; the AUClast is 12110.0 ng·h/mL and 12471.5 ng·h/mL and 11280.4 ng·h/mL and 5317.8 ng·h/mL and 11156.0 ng·h/mL; the Cmax was 800.4 ng/mL and 728.9 ng/mL and 833.2 ng/mL and 904.3 ng/mL; the T1/2 was 14.4 h and 12.7 h and 12.0 h and 11.6 h. For the same compound, the Tmax in data set [1] (setting [11]) stood at 2.0 h. In data set [2], the “GMS value (group mean score)” value is 0.89 ± 0.94, the “MMS value (mean maximal score)” value is given as 1.6 ± 1.6, the “Mean Duration” value was 9.6 ± 9.4 days and the “Mean Onset” value worked out at 21.5 ± 9.3 days. Besides, in data set [2], the “activity in inhibition of EAE clinical signs compared to laquinimod” value was “no significant difference in activity”, the Mortality was 0/15, the “% inhibition 1 (according to incidence)” value is on record as 28.6% and the “% inhibition 2 (according to MMS)” value worked out at 50.1%. Moreover, in data set [2], the “% inhibition 3 (according to GMS)” value worked out at 59.7% and the Incidence is recorded as 10/15.

For `COCC(=O)O[C@]1(CCN(C)CCCc2nc3ccccc3[nH]2)CCc2cc(F)ccc2[C@@H]1C(C)C` [Mibefradil], in data set [3] (10 μM), the “Fold Increase, Phenacetin O-dealkylation (CYP1A2) activity” value worked out at 3.76 fold; the “Enzyme activity, Phenacetin O-dealkylation (CYP1A2)” value worked out at 11.3 ± 2.1 pmol/mg protein/min; the “Percent positive control, Phenacetin O-dealkylation (CYP1A2) activity” value was found to be 10.1%. For the same compound, in data set [4] (10 μM), the “mRNA Fold increase, CYP1A2” value is reported as 0.423 fold. Moreover, in data set [4] (hepatocytes, 10 μM), the “decrease in CYP1A2 mRNA levels compared to vehicle control” value is 57.7% and the “mRNA Percent positive control, CYP1A2” value is listed as −7.61%.

Turning to `COc1ccc2[nH]c([S+]([O-])Cc3ncc(C)c(OC)c3C)nc2c1` (centres unmarked) [Omeprazole], in data set [3] (100 μM), the “Enzyme activity, Phenacetin O-dealkylation (CYP1A2)” value came out at 84.9 ± 5.4 pmol/mg protein/min and the “Percent positive control, Phenacetin O-dealkylation (CYP1A2) activity” value is 100%. Also, the “mRNA Fold increase, CYP1A2” value in data set [4] (100 μM) is given as 8.58 fold. Also, the “mRNA Percent positive control, CYP1A2” value in data set [4] (hepatocytes, 100 μM) is given as 100%.
